Experimental data published in ChEMBL document CHEMBL1132812, “Novel phosphinic and phosphonic acid analogues of the anticonvulsant valproic acid” (Bioorg Med Chem Lett, 2000).
Calls of active or inactive are those of the source. No cut-off for these calls is given here.

Key:
Rattus norvegicus [1] = species: Rattus norvegicus; experiment: Compound was evaluated for the anticonvulsant activity in amygdala kindled rats; Inactive; format: functional, organism-based
Rattus norvegicus [2] = species: Rattus norvegicus; experiment: Compound was evaluated for the anticonvulsant activity in amygdala kindled rats; Active; format: functional, organism-based
[3] = biological target: T1, Succinate-semialdehyde dehydrogenase, mitochondrial (Homo sapiens) (UniProt P51649); experiment: Compound was tested for the inhibition of succinic semialdehyde dehydrogenase; Active
T1 sequence (whole entry): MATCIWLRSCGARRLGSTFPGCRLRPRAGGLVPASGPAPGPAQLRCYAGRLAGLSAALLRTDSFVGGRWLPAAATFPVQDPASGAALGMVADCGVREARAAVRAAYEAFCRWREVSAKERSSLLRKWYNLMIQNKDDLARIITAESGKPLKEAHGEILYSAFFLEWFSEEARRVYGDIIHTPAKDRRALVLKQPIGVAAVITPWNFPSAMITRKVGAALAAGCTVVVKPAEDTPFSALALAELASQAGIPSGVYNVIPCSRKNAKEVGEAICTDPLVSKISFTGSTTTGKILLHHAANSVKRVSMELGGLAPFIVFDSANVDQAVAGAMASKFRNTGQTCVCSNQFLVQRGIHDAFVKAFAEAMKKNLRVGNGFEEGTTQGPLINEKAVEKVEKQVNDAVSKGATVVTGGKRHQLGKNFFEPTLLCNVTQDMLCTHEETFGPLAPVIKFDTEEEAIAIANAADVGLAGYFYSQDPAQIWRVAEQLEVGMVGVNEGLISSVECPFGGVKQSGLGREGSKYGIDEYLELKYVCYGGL

[4] = biological target: 4-aminobutyrate aminotransferase, mitochondrial (Homo sapiens) (UniProt P80404); experiment: Compound was tested for the inhibition of Gamma-amino-N-butyrate transaminase; Active
Chain of 4-aminobutyrate aminotransferase, mitochondrial (Homo sapiens) (P80404 whole entry): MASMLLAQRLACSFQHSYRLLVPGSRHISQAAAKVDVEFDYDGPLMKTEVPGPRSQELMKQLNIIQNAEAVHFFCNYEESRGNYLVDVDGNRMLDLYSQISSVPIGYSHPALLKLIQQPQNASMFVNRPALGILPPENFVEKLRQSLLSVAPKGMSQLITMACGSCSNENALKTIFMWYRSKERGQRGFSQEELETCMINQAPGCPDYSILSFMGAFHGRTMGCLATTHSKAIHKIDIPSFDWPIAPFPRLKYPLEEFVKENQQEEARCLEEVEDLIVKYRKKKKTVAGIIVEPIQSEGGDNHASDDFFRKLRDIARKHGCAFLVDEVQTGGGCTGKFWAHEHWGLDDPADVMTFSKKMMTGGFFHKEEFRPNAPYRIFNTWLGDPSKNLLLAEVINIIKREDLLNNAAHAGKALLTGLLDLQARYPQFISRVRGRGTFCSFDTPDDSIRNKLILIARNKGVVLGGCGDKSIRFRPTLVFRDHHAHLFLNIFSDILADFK

| Activity [3] | Activity [4] | SMILES | Activity (Rattus norvegicus [1]) | Activity (Rattus norvegicus [2]) |
| --- | --- | --- | --- | --- |
|  |  | CCCC(CCC)P(=O)(O)O | inactive |  |
|  |  | CCCC(CCC)[PH](=O)O | inactive |  |
|  |  | CCCC(CCC)P(C)(=O)O | inactive |  |
| Active | Active | CCCC(CCC)C(=O)O |  | Active |
